# Source: paper PMC9334755 (Cancer Biology & Medicine, 2021)
# How the values were obtained:
# BTK [1] = target: T1, BTK (Mus musculus, UniProt P35991); test: In vivo occupancy of BTK in mouse splenocytes; conditions: BALB/c mice, oral 50 mg/kg, 12 h after administration
# T1 construct: from tissue; host or cells: splenocytes from spleens of normal BALB/c mice
# Protocol: Cells were treated as indicated before the addition of a fluorescent probe (FL-SY-1530). After incubation, cells were collected and lysed for 5 min in cell lysis buffer. For analysis of the in vivo occupancy of BTK inhibitors, normal BALB/c mice (6–8 weeks old) were orally administered BTK inhibitors, […] seeded on 12-well plates and incubated with the fluorescent probe for 1 h. Then the samples were subjected to SDS-PAGE, and the gels were scanned with a Typhoon imaging system (excitation at 532 nm and emission at 555 nm). After scanning, the gels were detected with Western blot.
# Figure 3 SY-1530 binds BTK in a dose-dependent and time-dependent manner. (A) The content of SY-1530 was measured with LC-MS/MS after incubation with BTK for the indicated time periods. Data are shown as the mean ± SEM. (B) SY-1530 was incubated with different concentrations of BTK, and LC-MS/MS was then performed to detect SY-1530 content. Data are shown as the mean ± SEM of 3 independent experiments. Statistical analysis was performed with Student’s t-test (**P < 0.01, ***P < 0.001). […] Cells were lysed and then analyzed by Western blot and fluorescent gel scanning. […] The concentration of SY-1530 in the plasma was measured with LC-MS/MS. […] Cells were lysed and analyzed by Western blot and fluorescent gel scanning. The concentration of SY-1530 in the plasma was measured with LC-MS/MS.
# CYP2C19 = CYP2C19 (Homo sapiens, UniProt P33261); assay type: in vitro ADME
# Sequence of CYP2C19 (P33261 whole entry): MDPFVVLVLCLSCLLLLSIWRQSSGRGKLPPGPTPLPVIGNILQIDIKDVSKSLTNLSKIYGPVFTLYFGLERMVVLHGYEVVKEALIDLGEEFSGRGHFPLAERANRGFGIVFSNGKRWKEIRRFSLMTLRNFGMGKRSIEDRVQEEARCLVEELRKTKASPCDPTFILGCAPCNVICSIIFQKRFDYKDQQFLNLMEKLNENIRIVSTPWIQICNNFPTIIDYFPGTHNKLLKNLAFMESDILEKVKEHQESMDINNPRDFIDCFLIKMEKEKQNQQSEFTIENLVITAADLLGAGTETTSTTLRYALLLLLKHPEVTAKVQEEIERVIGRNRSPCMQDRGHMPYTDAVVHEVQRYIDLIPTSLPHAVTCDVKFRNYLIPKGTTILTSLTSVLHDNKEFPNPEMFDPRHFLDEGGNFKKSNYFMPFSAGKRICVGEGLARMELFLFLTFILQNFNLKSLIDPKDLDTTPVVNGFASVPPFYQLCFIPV
# Description: (§1) Table S8 Inhibition of CYP isozymes by SY-1530 […]
# (§2) (1 picture or pasted object on this page, not shown here)
# CYP2B6 = CYP2B6 (Homo sapiens, UniProt P20813); assay type: in vitro ADME
# Sequence of CYP2B6 (P20813 whole entry): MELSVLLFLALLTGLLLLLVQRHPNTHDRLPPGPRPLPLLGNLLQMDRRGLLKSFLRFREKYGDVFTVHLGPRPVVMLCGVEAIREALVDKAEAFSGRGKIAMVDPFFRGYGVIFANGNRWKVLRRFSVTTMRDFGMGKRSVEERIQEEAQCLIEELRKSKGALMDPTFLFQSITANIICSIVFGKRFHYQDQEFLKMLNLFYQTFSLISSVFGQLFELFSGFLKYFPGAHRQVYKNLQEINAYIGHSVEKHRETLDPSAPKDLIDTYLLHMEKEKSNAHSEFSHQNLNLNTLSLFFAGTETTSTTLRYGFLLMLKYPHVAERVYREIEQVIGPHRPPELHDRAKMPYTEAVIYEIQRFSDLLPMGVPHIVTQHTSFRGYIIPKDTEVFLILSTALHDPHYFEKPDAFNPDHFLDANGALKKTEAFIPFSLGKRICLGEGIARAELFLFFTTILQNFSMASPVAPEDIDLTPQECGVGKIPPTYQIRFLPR
# Description: as §1, §2
# CSK = CSK (Homo sapiens, UniProt P41240); test: Protein kinase panel at 1 µM, CSK; assay type: biochemical
# Sequence of CSK (P41240 whole entry): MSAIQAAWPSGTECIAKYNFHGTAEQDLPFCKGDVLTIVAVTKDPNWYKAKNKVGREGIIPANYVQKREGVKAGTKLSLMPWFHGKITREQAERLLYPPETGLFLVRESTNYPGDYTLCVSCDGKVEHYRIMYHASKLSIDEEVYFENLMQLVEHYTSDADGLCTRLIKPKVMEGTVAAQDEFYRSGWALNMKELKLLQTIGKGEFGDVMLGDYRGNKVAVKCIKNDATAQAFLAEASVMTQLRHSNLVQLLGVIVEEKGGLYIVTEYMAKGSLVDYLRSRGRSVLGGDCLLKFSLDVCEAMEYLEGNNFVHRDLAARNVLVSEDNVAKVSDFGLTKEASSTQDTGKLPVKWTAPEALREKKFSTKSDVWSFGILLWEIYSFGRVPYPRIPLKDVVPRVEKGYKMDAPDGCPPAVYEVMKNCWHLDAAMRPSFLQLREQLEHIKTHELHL
# B cell = test: Cell viability assay (CellTiter-Blue), human B cells; assay type: cell-based; conditions: read-out: IC50 (nM), growth of B cell
# Protocol: (§3) Cells were seeded on 96-well plates (9,000 cells/well), cultured at 37 °C in 5% CO2 overnight, and incubated with different concentrations of compounds for 3 or 7 days. Then the cells were stained with CellTiter-Blue® reagent (Promega) for 4 h at 37 °C. The fluorescence signals were detected with a FlexStation 3, and the IC50 values of each compound were determined with GraFit software (Version 6.0).
# (§4) CD19^+ B (>80% purity) and CD3^+ T (>90% purity) cells were purified with human B cell enrichment cocktail and human T cell enrichment cocktail (Stem Cell Technology), respectively. Cells were seeded on 12-well plates and incubated with different concentrations of BTK inhibitors for 1 h. B cells were stimulated with 50 µg/mL anti-human IgM F(ab′)2, and T cells were stimulated with 50 µg/mL anti-CD3/CD28 beads overnight. In the washout groups, the cell medium containing the indicated inhibitors was replaced with fresh medium before stimulation. Then cells were then incubated with anti-human CD69 for 1 h and analyzed with a Guava flow cytometer.
# HER2 = HER2 (Homo sapiens, UniProt P04626); test: HTRF kinase assay, HER2
# Sequence of HER2 (P04626 23-1255): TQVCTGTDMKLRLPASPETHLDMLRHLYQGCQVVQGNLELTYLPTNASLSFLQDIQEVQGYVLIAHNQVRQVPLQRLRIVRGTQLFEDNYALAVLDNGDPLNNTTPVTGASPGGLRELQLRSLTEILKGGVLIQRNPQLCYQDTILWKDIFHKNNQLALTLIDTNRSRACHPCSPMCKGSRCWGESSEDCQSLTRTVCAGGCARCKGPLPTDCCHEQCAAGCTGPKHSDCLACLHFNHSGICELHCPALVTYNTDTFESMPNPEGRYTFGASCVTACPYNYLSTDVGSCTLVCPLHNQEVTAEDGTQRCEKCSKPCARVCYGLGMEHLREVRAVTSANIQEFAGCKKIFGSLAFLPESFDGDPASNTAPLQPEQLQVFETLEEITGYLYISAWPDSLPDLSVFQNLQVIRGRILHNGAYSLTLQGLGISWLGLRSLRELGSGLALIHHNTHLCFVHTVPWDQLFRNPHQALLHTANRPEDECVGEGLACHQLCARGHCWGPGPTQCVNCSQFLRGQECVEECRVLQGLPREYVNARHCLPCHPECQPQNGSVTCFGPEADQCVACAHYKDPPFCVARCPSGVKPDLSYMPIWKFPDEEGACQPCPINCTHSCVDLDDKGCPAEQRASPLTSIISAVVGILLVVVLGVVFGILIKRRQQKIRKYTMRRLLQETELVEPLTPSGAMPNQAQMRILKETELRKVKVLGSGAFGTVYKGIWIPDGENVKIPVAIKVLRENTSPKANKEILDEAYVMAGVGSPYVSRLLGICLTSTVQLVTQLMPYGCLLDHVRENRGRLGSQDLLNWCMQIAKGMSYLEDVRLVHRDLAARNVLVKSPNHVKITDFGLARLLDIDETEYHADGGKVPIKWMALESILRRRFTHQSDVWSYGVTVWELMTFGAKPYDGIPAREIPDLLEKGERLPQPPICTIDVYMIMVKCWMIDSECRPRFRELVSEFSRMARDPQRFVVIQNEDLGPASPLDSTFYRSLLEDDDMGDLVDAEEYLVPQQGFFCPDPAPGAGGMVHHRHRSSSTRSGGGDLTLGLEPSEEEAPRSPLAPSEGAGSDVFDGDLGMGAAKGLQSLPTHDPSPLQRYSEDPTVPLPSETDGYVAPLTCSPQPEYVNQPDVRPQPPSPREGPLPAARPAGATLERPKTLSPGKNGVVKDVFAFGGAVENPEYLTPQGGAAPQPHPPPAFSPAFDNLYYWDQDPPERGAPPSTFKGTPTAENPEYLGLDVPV
# Protocol: Homogeneous time-resolved fluorescence (HTRF) assays were performed with a HTRF® KinEASE™-TK kit (Trevigen).
# human peripheral T cells = test: CD69 up-regulation in T cells after anti-CD3/CD28 stimulation; assay type: cell-based
# Protocol: as §4
# Figure 4 SY-1530 blocks B-cell receptor signaling and induces apoptosis. (A–D) Human B and T cells were purified and incubated with different concentrations of BTK inhibitors for 1 h. B cells were stimulated with 50 μg/mL anti-human IgM F(ab′)2, and T cells were stimulated with 50 μg/mL anti-CD3/CD28 beads overnight directly or after washout of BTK inhibitors before stimulation. The percentage of CD69 positive cells was analyzed by flow cytometry. Data are shown as the mean ± SEM (n = 3). Statistical analysis was performed with Student’s t-test (*P < 0.05, **P < 0.01, ***P < 0.001). (E) Pfeiffer cells and Romas cells were preincubated with different concentrations of compounds for 1 h, washed with PBS, and then stimulated with anti-IgM/anti-IgG (10 μg/mL) for 10 min. Cells were lysed and analyzed by Western blot with the indicated antibodies. (F) Pfeiffer cells were treated with various concentrations of SY-1530 for 24 h. The cells were stained with both PE-Annexin and 7-AAD and analyzed by flow cytometry. Data are shown as the mean ± SEM (n = 3). Statistical analysis was performed with Student’s t-test (*P < 0.05, **P < 0.01). (G) Pfeiffer cells were incubated with BTK inhibitors in the presence of z-VAD-fmk (caspase inhibitor) or DMSO for 24 h. Cells were lysed and analyzed with specific antibodies.
# LYN A = LYN A (Homo sapiens, UniProt P07948); test: Protein kinase panel at 1 µM, LYN A; assay type: biochemical
# Sequence of LYN A (P07948 whole entry): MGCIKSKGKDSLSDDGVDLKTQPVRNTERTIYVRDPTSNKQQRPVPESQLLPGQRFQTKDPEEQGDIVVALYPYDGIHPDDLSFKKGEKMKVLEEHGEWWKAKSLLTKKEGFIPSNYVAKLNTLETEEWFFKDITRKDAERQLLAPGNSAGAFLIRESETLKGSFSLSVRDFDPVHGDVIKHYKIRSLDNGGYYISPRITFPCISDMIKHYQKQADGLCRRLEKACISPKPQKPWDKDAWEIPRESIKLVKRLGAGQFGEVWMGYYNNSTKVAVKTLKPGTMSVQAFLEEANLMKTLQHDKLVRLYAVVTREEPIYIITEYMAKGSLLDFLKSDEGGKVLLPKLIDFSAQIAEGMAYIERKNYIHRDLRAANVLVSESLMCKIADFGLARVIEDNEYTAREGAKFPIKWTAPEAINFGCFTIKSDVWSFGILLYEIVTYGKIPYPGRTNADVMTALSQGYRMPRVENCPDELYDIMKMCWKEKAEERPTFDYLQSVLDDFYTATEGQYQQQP
# ABL1 = ABL1 (Homo sapiens, UniProt P00519); test: Protein kinase panel at 1 µM, ABL1; assay type: biochemical
# FLT1 = FLT1 (Homo sapiens, UniProt P17948); test: Protein kinase panel at 1 µM, FLT1; assay type: biochemical
# Sequence of FLT1 (P17948 27-1338): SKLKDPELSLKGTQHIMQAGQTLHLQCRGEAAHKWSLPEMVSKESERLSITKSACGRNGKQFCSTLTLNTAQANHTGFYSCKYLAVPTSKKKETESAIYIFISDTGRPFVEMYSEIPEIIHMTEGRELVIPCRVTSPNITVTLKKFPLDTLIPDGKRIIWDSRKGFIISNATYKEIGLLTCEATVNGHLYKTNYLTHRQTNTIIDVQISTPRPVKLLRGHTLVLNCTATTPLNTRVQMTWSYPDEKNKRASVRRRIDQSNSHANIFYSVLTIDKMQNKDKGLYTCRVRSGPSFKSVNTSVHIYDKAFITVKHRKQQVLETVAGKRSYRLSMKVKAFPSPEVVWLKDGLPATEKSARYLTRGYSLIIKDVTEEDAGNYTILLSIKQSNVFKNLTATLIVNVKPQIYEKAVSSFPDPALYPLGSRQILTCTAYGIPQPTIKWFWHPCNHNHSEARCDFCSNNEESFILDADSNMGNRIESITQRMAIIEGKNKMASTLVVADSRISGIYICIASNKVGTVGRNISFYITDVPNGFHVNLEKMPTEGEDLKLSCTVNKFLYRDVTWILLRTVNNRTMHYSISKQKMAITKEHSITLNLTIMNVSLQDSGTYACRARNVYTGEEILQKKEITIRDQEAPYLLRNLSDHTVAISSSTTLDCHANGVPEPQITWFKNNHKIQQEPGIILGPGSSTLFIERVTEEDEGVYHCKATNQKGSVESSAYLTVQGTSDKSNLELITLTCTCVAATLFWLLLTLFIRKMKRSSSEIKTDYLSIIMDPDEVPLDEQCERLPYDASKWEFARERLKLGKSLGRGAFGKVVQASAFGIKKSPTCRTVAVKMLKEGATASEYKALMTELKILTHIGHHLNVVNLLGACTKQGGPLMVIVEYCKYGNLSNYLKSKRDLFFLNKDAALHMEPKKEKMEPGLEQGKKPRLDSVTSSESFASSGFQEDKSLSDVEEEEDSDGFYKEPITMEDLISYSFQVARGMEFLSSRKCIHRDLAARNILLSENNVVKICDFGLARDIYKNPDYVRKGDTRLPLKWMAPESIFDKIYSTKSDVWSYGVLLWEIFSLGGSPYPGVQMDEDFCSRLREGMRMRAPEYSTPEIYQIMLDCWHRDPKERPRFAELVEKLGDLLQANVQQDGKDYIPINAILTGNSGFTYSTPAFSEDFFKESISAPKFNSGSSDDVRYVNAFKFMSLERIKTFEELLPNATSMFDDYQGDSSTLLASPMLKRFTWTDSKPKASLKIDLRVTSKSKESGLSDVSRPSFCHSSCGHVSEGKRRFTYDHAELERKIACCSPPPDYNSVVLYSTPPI
# BTK [2] = target: BTK (Homo sapiens, UniProt Q06187); test: Competition with fluorescent probe FL-SY-1530 in DOHH2 cells (Typhoon imaging); assay type: cell-based; conditions: 10 nM inhibitor 1 h, then 2.5 µM FL-SY-1530 1 h
# Protocol: Data are shown as the mean ± SEM. […] Data are shown as the mean ± SEM of 3 independent experiments. Statistical analysis was performed with Student’s t-test (**P < 0.01, ***P < 0.001). […] Cells were lysed and then analyzed by Western blot and fluorescent gel scanning. […] Cells were lysed and analyzed by Western blot and fluorescent gel scanning.
# Pfeiffer = test: Cell viability assay (CellTiter-Blue), Pfeiffer; assay type: cell-based, human; conditions: Pfeiffer cells; read-out: IC50 (nM), growth of Pfeiffer
# Protocol: as §3
# YES1 = YES1 (Homo sapiens, UniProt P07947); test: Protein kinase panel at 1 µM, YES1; assay type: biochemical
# Sequence of YES1 (P07947 whole entry, species assumed): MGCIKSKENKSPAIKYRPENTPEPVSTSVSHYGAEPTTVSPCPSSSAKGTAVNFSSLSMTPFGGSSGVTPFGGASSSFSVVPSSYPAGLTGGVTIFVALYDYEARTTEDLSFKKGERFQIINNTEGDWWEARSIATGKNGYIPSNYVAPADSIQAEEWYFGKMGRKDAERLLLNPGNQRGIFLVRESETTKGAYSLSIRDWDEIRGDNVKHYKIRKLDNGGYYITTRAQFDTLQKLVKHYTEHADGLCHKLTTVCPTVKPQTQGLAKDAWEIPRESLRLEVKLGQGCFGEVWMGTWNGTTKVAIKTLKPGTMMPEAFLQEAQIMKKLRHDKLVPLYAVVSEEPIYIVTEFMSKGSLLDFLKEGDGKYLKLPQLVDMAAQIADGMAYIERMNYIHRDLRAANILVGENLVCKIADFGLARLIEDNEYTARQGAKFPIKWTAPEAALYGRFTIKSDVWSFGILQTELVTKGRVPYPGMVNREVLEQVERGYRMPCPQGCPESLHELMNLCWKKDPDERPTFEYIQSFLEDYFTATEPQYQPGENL
# FGR = FGR (Homo sapiens, UniProt P09769); test: Protein kinase panel at 1 µM, FGR; assay type: biochemical
# [3] = human
compound,measurement,setting,value
COC/C=C/C(=O)N1CC[C@@H](n2nc(-c3ccc(Oc4ccccc4)cc3)c(C(N)=O)c2N)C1 [SY-1530],BTK protein in splenocytes bound by inhibitor,BTK [1],still bound
same,IC50,CYP2C19,23.8 µM
same,IC50,CYP2B6,> 25 µM
same,"Inhibition (%), CSK",CSK,84%
same,IC50,B cell,1.05 nM
same,"Ratio, HER2",HER2; IC50 SY-1530 over IC50 ibrutinib,> 2500
same,IC50,"HER2; read-out: IC50 (nM), HER2, HTRF",> 10000 nM
same,Up-regulation of CD69 in T cells,human peripheral T cells; after washout of BTK inhibitors,not affected
same,CD69 up-regulation after T cell receptor stimulation,"human peripheral T cells; continuous exposure, 10 µM",slightly inhibited
same,"Inhibition (%), LYN A",LYN A,87%
same,"Inhibition (%), ABL1",ABL1,8%
same,"Inhibition (%), FLT1",FLT1,33%
same,Binding of FL-SY-1530 to BTK after pretreatment with inhibitor,BTK [2],scarcely bound
same,IC50,Pfeiffer,71.4 nM
same,"Inhibition (%), YES1",YES1,94%
same,"Inhibition (%), FGR",FGR,96%
same,Plasma protein binding (%),[3],95.6%
